Results reported in patent US8309790B2, “Animal models for demyelination disorders” (University of Chicago, priority 2005, dated 2012).

Key:
[1] = system: corpus callosum of GFAP/tTA; TRE/IFN-γ; PERK+/− mice; assay: Remyelination after cuprizone in double transgenic mice on PERK+/+ or PERK+/− background; assay type: in vivo; conditions: for remyelinated axons: 9 weeks
From the text: The involvement of the ER stress response in the reduction caused by IFN-γ to remyelinate lesions was examined in transgenic mice that were generated to be heterozygous for a loss of function mutation in pancreatic ER kinase (PERK) (Harding, et al., (2001) Mol Cell 7:1153-1163), and to be temporally regulated for expressing INF-γ in the CNS. TRE/IFN-γ mice were first crossed with PERK+/− mice (Harding, et al. (2001) Mol. Cell 7: 1153-1163) on the C57BL/6 background to generate mice the carry the PERK mutation, and the resulting progeny were crossed to GFAP/tTA mice to obtain transgenic mice that were heterozygous for the PERK mutation. The effect of PERK on remyelination in the presence or absence of INF-γ was evaluated as evaluated as a function of the level of myelination of oligodendrocytes in remyelinating lesions and the number of oligodendrocytes present in the remyelinating lesion.
The extent of remyelination was assessed as described in the previous examples in the corpus callosum of PERK+/+ and PERK+/− mice that were made to express INF-γ (DOX− PERK+/+ and DOX− PERK+/−), and in mice in which the expression of INF-γ was repressed (DOX+ PERK+/+ and DOX+ PERK+/−). Remyelination was determined by electron microscopy, and was related to the number of CC1 positive oligodendrocytes and the level of caspase-3 expression in the corpus callosum of all animals. The level of caspase-3 was determined by immunohistochemical methods using anti capsase antibody (active-casoase-3 antibody, 1:50; Cel Signaling Technology) and according to the method described in Example 1. Demyelination was induced in six-week-old GFAP/tTA; TRE/IFN-γ double transgenic mice on a PERK+/− background that had been maintained on doxycycline, by simultaneously treating the mice with 0.2% cuprizone and releasing them from doxycycline (DOX− PERK+/−). Remyelination was allowed to occur by withdrawing cuprizone at week 6.

[2] = system: cultured rat oligodendrocytes; assay: IFN-γ treatment of cultured rat oligodendrocytes (apoptosis, ER stress markers); assay type: cell-based
Experimental: To test whether apoptosis of oligodendrocytes that is induced by INF-γ affects ER stress, the effect on the morphology, the degree of apoptosis and the expression of ER markers was studied in a culture of oligodendrocyte precursor cells (OPC). Oligodendrocyte progenitors were cultured from neonatal rat brains (Baerwald, et al. (1998) J. Neurosci. Res. 52: 230-239). A mixed glial culture was grown in flasks in medium containing 10% fetal bovine serum (FBS), and when the astrocyte layer became confluent (10-14 days), oligodendrocyte progenitors were separated from astrocytes and microglia using an orbital shaker. Cells, greater than 95% of which were A2B5 positive, GFAP negative and CD11b negative, were cultured in 0.5% FBS containing medium, which also contained PDGF (10 ng/ml) and FGF (5 ng/ml) (both from R&D Systems, Minneapolis, Minn.). Then cells were switched to 0.5% FBS medium without PDGF and FGF for differentiation. After 5 days in the differentiating medium, approximately 40% of cells were positive for myelin protein 2′3′-cyclic nucleotide 3′-phosphodiestaerase (CNP). 70 U/ml recombinant rat IFN-γ (Calbiochem, La Jolla, Calif.) was added to the cells that had been allowed to differentiation for 5 days. After 5 d in the differentiating medium, about 40% of the cells were CNP positive. 70 U/ml of recombinant rat INF-γ (Calbiochem) was added to the cells that had been allowed to differentiate for 5d. To examine the oligodendroglial response to general ER stress-inducing agents, progenitor cells that had been cultured in differentiation medium for 5 or 7 days were treated with 2 μg/ml of tunicamycin (Sigma Aldrich) for 6 hours.
The level of apoptosis of the OPC cells was determined by double staining CNP (1:200; Stemberger Monoclonals, Lutherville, Md.) and TUNEL using the ApopTag Kit (Serologicals Corp., Norcross, […].) and following the manufacturer's instructions. Apoptosis was also evaluated by measuring the activity of caspase-3 in oligodendrocyte lysates using the Fluorimetric Caspase 3 Assay Kit (Sigma, St. Louis, Mo.), according to the manufacturer's instructions.
To determine whether INF-γ affects ER function, the RNA expression of ER markers binding immunoglobulin protein (BIP), CAAT enhancer binding protein homologous protein (CHOP), and caspase 12 was determined using real time PCR. RNA was isolated from cultured cells and mice brain using Trizol reagent (Invitrogen, Carlsbad, Calif.) and treated with DNAaseI (Invitrogen) to eliminate genomic DNA. Reverse transcription was performed using Superscript First Strand Synthesis System for RT-PCR kit (Invitrogen). Real-time PCR was performed with iQ Supermix (Bio-Rad, Hercules, Calif.) on a Bio-Rad iQ real-time PCR detection system (Bio-Rad). The following primers and probes (Integrated DNA Technologies Inc., Coralville, Iowa) for real-time PCR were used: mouse CHOP sense primer […] (SEQ ID NO: 34); mouse CHOP antisense primer […] (SEQ ID NO: 35); CHOP probe […] (SEQ ID NO: 36); mouse BIP sense primer […] (SEQ ID NO: 31); mouse BIP antisense primer […] (SEQ ID NO: 32); BIP probe […] (SEQ ID NO: 33); mouse caspase 12 sense primer […] (SEQ ID NO: 37); and mouse caspase antisense primer […] (SEQ ID NO: 38).
To determine the effect of INF-γ on the level of phosphorylated eIF-2α and caspase 12 proteins, western blot analysis was performed using the following antibodies anti-eIF-2α (1:500; Santa Cruz), anti-p-eIF-2α (1:1000, Cell signaling Technology), anti-caspase-12 (1:500; Santa Cruz) and anti-actin (1:1000; Sigma, St Louis, Mo.), and according to the following protocol. […]

## interferon-γ [IFN-γ]
[1]; DOX− PERK+/+ mice
  remyelinated axons: 31.1%±7.6%
[1]; DOX− PERK+/+ mice, corpus callosum, week 9
  number of CC1 positive oligodendrocytes: 123.2±27.5 /0.04 mm^2
[1]; DOX− PERK+/− mice, 3 weeks after cuprizone removed
  remyelinated axons: 15.6%±7.6%
[1]; DOX− PERK+/− mice, week 9
  CC1 positive oligodendrocytes in the corpus callosum: only a few oligodendrocytes were detected
[1]; week 9
  number of oligodendrocytes positive for caspase-3, DOX− PERK+/− relative to DOX− PERK+/+: 2.3 times
[2]; 70 U/ml IFN-γ
  caspase-3 activity in the cell lysates: markedly increased
[2]; 70 U/ml IFN-γ for 48 h
  apoptosis, TUNEL and CNP double labeling: induced apoptosis in a significant number of oligodendrocytes
[2]; 70 U/ml IFN-γ for 48 h, cells differentiated 5 days
  cell morphology: abnormal morphological changes
[2]; 70 U/ml IFN-γ, Western blot
  level of phosphorylated eIF-2α (p-eIF-2α): significantly elevated
[2]; 70 U/ml IFN-γ, real-time PCR
  caspase-12 expression: induction of caspase-12 was observed
  levels of mRNA encoding BIP/GRP78 and CHOP/GADD153: 2 to 3 times
[2]; after 48 h of IFN-γ treatment, Western blot
  level of the active fragment of caspase-12: strongly elevated
